Measurements from patent US6495591B1, “Fungal efflux pump inhibitors” (Essential Therapeutics, Inc., priority 1997, dated 2002).
Read-outs that look alike come from different tables or passages of the source.

Tests used:
Assay type in all cases: cell-based
[1] = system: YEM 13 C. albicans BEN up; assay: microbe, parasite or virus in culture; conditions: YEM 13, 24 hrs, 80% inhibition; for MIC of compound in the presence of fluconazole (+): 1/8 × MIC of fluconazole
[2] = system: YEM 15 C. albicans, CDR1CDR2 up; assay: microbe, parasite or virus in culture; conditions: YEM 15, 24 hrs, 80% inhibition; for MIC of compound in the presence of fluconazole (+): 1/8 × MIC of fluconazole
YEM 53 C. krusei = assay: FEPI MIC with/without 1/8 fluconazole MIC at 24 hrs (Table 11)
[3] = system: YEM 17 C. glabrata, CgCDR up; conditions: 24 hrs, 80% inhibition; for MIC of compound in the presence of fluconazole (+): 1/8 × MIC of fluconazole
YEM 51 C. glabrata wt = assay: FEPI MIC with/without 1/8 fluconazole MIC at 24 hrs (Table 11)
YEM 30 C. albicans wt = assay: as above
[4] = system: YEM 24 C. albicans ΔCDR1, ΔCDR2; assay: microbe, parasite or virus in culture; conditions: YEM 24, 24 hrs, 80% inhibition; for MIC of compound in the presence of fluconazole (+): 1/8 × MIC of fluconazole
[5] = system: YEM 27 C. albicans ΔCDR1ΔCDR2 ΔBENΔFLU1; assay: microbe, parasite or virus in culture; conditions: YEM 27, 24 hrs, 80% inhibition; for MIC of compound in the presence of fluconazole (+): 1/8 × MIC of fluconazole
Aspergillus fumigatus = assay: FEPI MICs in combination with 1/4 the azole's MIC (Table 12); set-up: FEPI MIC (alone): unit not given here; conditions: for FEPI MIC with itraconazole, 60% Inh / FEPI MIC with itraconazole, 80% Inh: itraconazole 0.063 μg/ml (1/4 MIC); for FEPI MIC with ketoconazole, 60% Inh / FEPI MIC with ketoconazole, 80% Inh: ketoconazole 4 μg/ml (1/4 MIC); for FEPI MIC (alone): no azole, 35° C., CM Broth
Experimental: The combinations were tested against a series of Candida strain with known expression of efflux pumps or with complete deletion of all known pumps and Aspergillus fumigatus. Results are reported as minimum inhibitory concentration (MIC) of […] in the presence or absence of […]. A total of 27 distinct milbemycins were studied.

[6] = YEM 53, 1/8 × MIC of fluconazole, 24 hrs, 80% inhibition
[7] = YEM 51, 1/8 × MIC of fluconazole, 24 hrs, 80% inhibition
[8] = YEM 30, 1/8 × MIC of fluconazole, 24 hrs, 80% inhibition
[9] = fluconazole 32 μg/ml (1/4 MIC), 60% inhibition
[10] = fluconazole 32 μg/ml (1/4 MIC), 80% inhibition

| Compound | MIC of compound in the presence of fluconazole (+) [1] [mg/L] | MIC of compound in the absence of fluconazole (−) [1] [mg/L] | MIC of compound in the presence of fluconazole (+) [2] | MIC of compound in the absence of fluconazole (−) [2] [mg/L] | MIC of compound in the presence of fluconazole (+) (YEM 53 C. krusei; [6]) [mg/L] | MIC of compound in the absence of fluconazole (−) (YEM 53 C. krusei; YEM 53, 24 hrs, 80% inhibition) [mg/L] | MIC of compound in the presence of fluconazole (+) [3] [mg/L] | MIC of compound in the absence of fluconazole (−) [3] [mg/L] | MIC of compound in the presence of fluconazole (+) (YEM 51 C. glabrata wt; [7]) [mg/L] | MIC of compound in the absence of fluconazole (−) (YEM 51 C. glabrata wt; YEM 51, 24 hrs, 80% inhibition) [mg/L] | MIC of compound in the absence of fluconazole (−) (YEM 30 C. albicans wt; YEM 30, 24 hrs, 80% inhibition) [mg/L] | MIC of compound in the presence of fluconazole (+) [4] [mg/L] | MIC of compound in the absence of fluconazole (−) [4] [mg/L] | MIC of compound in the presence of fluconazole (+) [5] [mg/L] | MIC of compound in the absence of fluconazole (−) [5] [mg/L] | FEPI MIC with itraconazole, 60% Inh (Aspergillus fumigatus; 60% inhibition) | FEPI MIC with itraconazole, 80% Inh (Aspergillus fumigatus; 80% inhibition) | FEPI MIC with ketoconazole, 60% Inh (Aspergillus fumigatus; 60% inhibition) | FEPI MIC with ketoconazole, 80% Inh (Aspergillus fumigatus; 80% inhibition) | FEPI MIC (alone) (Aspergillus fumigatus; 80% inhibition) | other results |
| --- | --- | --- | --- | --- | --- | --- | --- | --- | --- | --- | --- | --- | --- | --- | --- | --- | --- | --- | --- | --- | --- |
| CO[C@H]1C[C@@]2(O)/C(C=O)=C/C=C/[C@H](C)C/C(C)=C/C[C@@H]3C[C@@H](C[C@]4(CC[C@H](C)[C@@H](C)O4)O3)OC(=O)[C@@H]2C=C1C [Compound 5, Milbemycin β1 aldehyde] | 64 | > 64 | ≦0.03 | > 64 | > 64 | > 64 | 0.125 | > 64 | 0.25 | > 64 | > 64 | > 64 | > 64 | 64 | > 64 | 0.5 | 32 | ≦0.063 | ≦0.063 | 64 | MIC of compound in the presence of fluconazole (+) (YEM 30 C. albicans wt; [8]): ≦0.03; FEPI MIC with fluconazole, 60% Inh (Aspergillus fumigatus; [9]): 4; FEPI MIC with fluconazole, 80% Inh (Aspergillus fumigatus; [10]): 64 |
| CCCCC(C)C(=O)OC1C(C)C(CC)OC2(CC3CC(CC=C(C)CC(C)C=CC=C4COC5C(O)C(C)=CC(C(=O)O3)C45O)O2)C1O (stereo not drawn) [Compound 10, Milbemycin α7] | > 64 | > 64 | ≦0.03 | > 64 | > 64 | > 64 | 1 | > 64 | 2 | > 64 | > 64 | > 64 | > 64 | > 64 | > 64 | 1 | 8 | 0.25 | 0.25 | >64 | MIC of compound in the presence of fluconazole (+) (YEM 30 C. albicans wt; [8]): ≦0.03; FEPI MIC with fluconazole, 60% Inh (Aspergillus fumigatus; [9]): 0.25; FEPI MIC with fluconazole, 80% Inh (Aspergillus fumigatus; [10]): 4 |
| CC1=C[C@H]2C(=O)O[C@H]3C[C@@H](C/C=C(\C)C[C@@H](C)/C=C/C=C4\CO[C@H]([C@@H]1O)[C@@]42O)O[C@@]1(CC[C@H](C)[C@@H](C(C)C)O1)C3 [Compound 12, Milbemycin D] | > 64 | > 64 | ≦0.03 | > 64 |  | > 64 | 32 | > 64 |  | > 64 | > 64 | > 64 | > 64 | 64 | > 64 | 8 | >64 | 0.125 | 1 | >64 | MIC of compound in the presence of fluconazole (+) (YEM 53 C. krusei): 8 mg/L; MIC of compound in the presence of fluconazole (+) (YEM 51 C. glabrata wt): 8 mg/L; MIC of compound in the presence of fluconazole (+) (YEM 30 C. albicans wt): 4 mg/L; FEPI MIC with fluconazole, 60% Inh (Aspergillus fumigatus): 16; FEPI MIC with fluconazole, 80% Inh (Aspergillus fumigatus): >64 |
| C/C1=C\C[C@@H]2CC(C[C@]3(CC[C@H](C)[C@@H](C)O3)O2)OC(=O)c2cc(C)c(O)cc2/C(C)=C/C=C/[C@H](C)C1 [Compound 13, Milbemycin β3] | 64 | > 64 | 8 mg/L | > 64 | > 64 | > 64 | 64 | > 64 | > 64 | > 64 | > 64 | > 64 | > 64 | > 64 | > 64 | 64 | >64 | 0.5 | 0.5 | >64 | MIC of compound in the presence of fluconazole (+) (YEM 30 C. albicans wt; [8]): 0.125 mg/L; FEPI MIC with fluconazole, 60% Inh (Aspergillus fumigatus; [9]): 32; FEPI MIC with fluconazole, 80% Inh (Aspergillus fumigatus; [10]): >64 |
